From patent publication US9790233B2, “Compositions and methods of modulating 15-PGDH activity” (CASE WESTERN RESERVE UNIVERSITY, priority 2012, dated 2017)
Read-outs that look alike come from different tables or passages of the source.

Tests used:
Type in all cases: cell-based
[1] = test system: 15-PGDH luciferase fusion construct in V9m reporter cell line; test: 15-PGDH-luciferase fusion gene reporter induction, V9m cells
[2] = test system: 15-PGDH luciferase fusion construct in LS174T reporter cell line; test: 15-PGDH-luciferase fusion gene reporter induction, LS174T cells; conditions: Homo sapiens
[3] = test system: 15-PGDH luciferase fusion construct in Vaco503 reporter cell line; test: 15-PGDH-luciferase fusion gene reporter induction, V503 cells
[4] = read-out: V9M reporter activity ([…]), […], % increased luciferase activity over basal level, 100 = doubling, read-out: V9M reporter activity (2.5 uM)
[5] = read-out: V9M reporter activity ([…]), […], % increased luciferase activity over basal level, 100 = doubling, read-out: V9M reporter activity (7.5 uM)
[6] = read-out: LS174T reporter activity ([…]), […], % increased luciferase activity over basal level, read-out: LS174T reporter activity (2.5 uM)
[7] = read-out: LS174T reporter activity ([…]), […], % increased luciferase activity over basal level, read-out: LS174T reporter activity (7.5 uM)
[8] = read-out: V503 reporter activity ([…]), […], % increased luciferase activity over basal level, read-out: V503 reporter activity (2.5 uM)
[9] = read-out: V503 reporter activity ([…]), […], % increased luciferase activity over basal level, read-out: V503 reporter activity (7.5 uM)
[10] = read-out: V9M-SC3 Reporter activity ([…]) (%), […], Table 18, read-out: V9M-SC3 Reporter activity (2.5 μM) (%)
[11] = read-out: Ls174T-SC1 reporter activity, % ([…]), […], Table 18, read-out: Ls174T-SC1 reporter activity, % (2.5 μM)
[12] = read-out: Ls174T-SC1 reporter activity, % ([…]), […], Table 18, read-out: Ls174T-SC1 reporter activity, % (7.5 μM)
[13] = read-out: V503-3H9-7 reporter activity, % ([…]), […], Table 18, read-out: V503-3H9-7 reporter activity, % (2.5 μM)
[14] = read-out: V503-3H9-7 reporter activity, % ([…]), […], Table 18, read-out: V503-3H9-7 reporter activity, % (7.5 μM)
[15] = read-out: V9M-SC3 Reporter activity ([…]) (%), V9m reporter cells, […] compound, % induction of luciferase activity over basal level, read-out: V9M-SC3 Reporter activity (2.5 μM) (%)
[16] = read-out: V9M-SC3 Reporter activity ([…]), %, V9m reporter cells, […] compound, % induction of luciferase activity over basal level, read-out: V9M-SC3 Reporter activity (7.5 μM), %
[17] = read-out: Ls174T-SC1 reporter activity, % ([…]), LS174T reporter cells, […] compound, % induction of luciferase activity over basal level, read-out: Ls174T-SC1 reporter activity, % (2.5 μM)
[18] = read-out: Ls174T-SC1 reporter activity, % ([…]), LS174T reporter cells, […] compound, % induction of luciferase activity over basal level, read-out: Ls174T-SC1 reporter activity, % (7.5 μM)
[19] = read-out: V503-3H9-7 reporter activity, % ([…]), V503 reporter cells, […] compound, % induction of luciferase activity over basal level, read-out: V503-3H9-7 reporter activity, % (2.5 μM)
[20] = read-out: V503-3H9-7 reporter activity, % ([…]), V503 reporter cells, […] compound, % induction of luciferase activity over basal level, read-out: V503-3H9-7 reporter activity, % (7.5 μM)
[21] = read-out: V9M reporter activity ([…]), […], % induction of luciferase activity over basal level, Table 17, read-out: V9M reporter activity (2.5 μM)
[22] = read-out: V9M reporter activity ([…]), […], % induction over basal level, Table 17, read-out: V9M reporter activity (7.5 μM)
[23] = read-out: LS174T reporter activity ([…]), […], % induction over basal level, Table 17, read-out: LS174T reporter activity (2.5 μM)
[24] = read-out: lS174T reporter activity ([…]), […], % induction over basal level, Table 17, read-out: lS174T reporter activity (7.5 μM)
[25] = read-out: V503 reporter activity ([…]), […], % induction over basal level, Table 17, read-out: V503 reporter activity (2.5 μM)
[26] = read-out: V503 reporter activity ([…]), […], % induction over basal level, Table 17, read-out: V503 reporter activity (7.5 μM)

SMILES	activation at […] [1, 15]	activation at […] [1, 16]	activation at […] [2, 17]	activation at […] [2, 18]	activation at […] [3, 19]	activation at […] [3, 20]	further results
CCOC(=O)c1sc2nc(-c3ccccc3)cc(-c3ccccc3)c2c1N [compound 405320]	–	–	–	–	–	–	activation at […] [1, 4]: 8.77%; activation at […] [1, 5]: -15.4%; activation at […] [2, 6]: 9.95%; activation at […] [2, 7]: -2.57%; activation at […] [3, 8]: -7.73%; activation at […] [3, 9]: -33.7%
COc1ccc(OC)c(N(CC(=O)Nc2cccnc2)S(C)(=O)=O)c1 [527699−66−7]	–	–	–	–	–	–	activation at […] [1, 10]: -31%; activation at […] [2, 11]: 7.31%; activation at […] [2, 12]: -29.6%; activation at […] [3, 13]: 38.8%; activation at […] [3, 14]: 70.9%
COc1ccc(OC)c(N(CC(=O)N2CCCc3ccccc32)S(=O)(=O)c2ccccc2)c1 [SW208006]	34.9%	0.15%	38.2%	42.2%	89.7%	43.9%	–
CCCCSc1ncccc1N [SW208068, 2-(butylthio)pyridin-3-amine]	–	–	–	–	–	–	activation at […] [1, 4]: 12.9%; activation at […] [1, 5]: 12.3%; activation at […] [2, 6]: 14.9%; activation at […] [2, 7]: 15%; activation at […] [3, 8]: 14.9%; activation at […] [3, 9]: 15%
COc1ccc(OC)c(N(CC(=O)O)S(=O)(=O)c2ccccc2)c1 [SW122063]	1.67%	4.8%	22.6%	19.9%	42.5%	44.1%	–
COc1ccc(OC)c(N(CC(=O)N2CCCC2=O)S(=O)(=O)c2ccccc2)c1 [SW208002]	-12.4%	-21.8%	-14.5%	-14.6%	-15.7%	-16.5%	–
CNC(=O)CN(c1cc(OC)ccc1OC)S(=O)(=O)c1ccccc1 [SW203682]	15.3%	22.4%	187%	13.8%	-32.2%	79.2%	–
COc1ccc(OC)c(NC(=O)CN(c2ccccc2)S(=O)(=O)c2cc(Br)ccc2OC)c1 [compound 1002654]	–	–	–	–	–	–	activation at […] [1, 21]: -2.58%; activation at […] [1, 22]: -3.96%; activation at […] [2, 23]: 5.51%; activation at […] [2, 24]: -1.24%; activation at […] [3, 25]: 0.78%; activation at […] [3, 26]: 19.2%
COc1ccc(OC)c(N(CC(=O)Nc2cccnc2)S(=O)(=O)c2ccccc2C)c1 [SW202943]	7.12%	17.8%	33.1%	55.7%	72.3%	147%	–
COc1ccc(OC)c(N(C(C)C(=O)Nc2cccnc2)S(=O)(=O)c2ccccc2)c1 (stereo not shown) [SW202991]	-25%	-7.5%	-15.6%	2.09%	-6.08%	8.9%	–
COc1ccc(NC(=O)CN(c2ccccc2)S(=O)(=O)c2ccccc2)cc1 [compound 474759]	–	–	–	–	–	–	activation at […] [1, 21]: 2.58%; activation at […] [1, 22]: 6.4%; activation at […] [2, 23]: 5.54%; activation at […] [2, 24]: -0.03%; activation at […] [3, 25]: -5.04%; activation at […] [3, 26]: -12.7%
COc1ccc(OC)c(N(CC(=O)N2CCCCC2)S(=O)(=O)c2ccccc2)c1 [SW131633]	77.2%	141%	8.42%	150%	104%	-40.6%	–
COc1ccc(OC)c(N(CC(=O)Nc2ccc(Cl)c(Cl)c2)S(=O)(=O)c2ccccc2)c1 [339589-55-8]	–	–	–	–	–	–	activation at […] [1, 10]: -7%; activation at […] [2, 11]: -5.54%; activation at […] [2, 12]: 8.81%; activation at […] [3, 13]: 64%; activation at […] [3, 14]: 52.5%
